# According to patent US20040152641A1, “Use of polymethoxylated flavones for treating insulin resistance” (priority 2001, published 2004):
# Assays:
# alpha-glucosidase = conditions: cited from earlier work
# [1] = molecular target: alpha-glucosidase Type 1 from bakers yeast (Saccharomyces cerevisiae, UniProt P53341); assay: In vitro inhibition of alpha-glucosidase; format: biochemical; conditions: 30 min, 37° C., p-nitrophenyl-alpha-D-glucopyranoside
# Description: For the assay, alpha-glucosidase Type 1 from bakers yeast was incubated for 30 min, at 37° C., in the presence of substrate (p-nitrophenyl-alpha-D-glucopyranoside) and in the presence vs. absence of citrus flavonoids or coumarins at concentrations ranging from 3 to 200 μg/mL (0.01 to 1.8 mM). The reaction was stopped by addition of 0.2 M Na2CO3 and absorbance was measured at 405 nm. Background absorbance (without enzyme) was subtracted for every flavonoid or coumarins concentration used. The inhibitory activity was expressed as percent control and IC50 values (concentrations of compounds required to inhibit alpha-glucosidase by 50%) were calculated.
# HepG2 cells = assay: Medium apo B in HepG2 cells made insulin-resistant by long-term insulin incubation; format: cell-based, human; conditions: insulin plus 25 μg/mL tangeretin, 5 days, Elisa
# Description: In the cell culture study, 80-90% confluent HepG2 cells were incubated for 5 days with the following media:
# 1. Minimum essential medium containing 1% bovine serum albumin (MEM+BSA)
# 2. The same medium containing […] bovine insulin
# All media were changed on day 3 to maintain high concentration of insulin (which undergoes partial degradation after long-term incubation). After 5 days, media and cells were collected. Medium concentrations of apo B were measured by Elisa and expressed as μg per mg cell protein as described previously^8.
# [2] = test system: human liver cell line HepG2; conditions: cited from earlier work
# [3] = test system: hamsters with casein-induced hypercholesterolemia; conditions: 0.13-1.0% supplementation; cited from earlier work
# [4] = test system: hamsters made insulin resistant by feeding 60% fructose diet; assay: Hamsters made insulin resistant by 60% fructose diet, tangeretin supplementation, 2 weeks; conditions: for HDL cholesterol / Insulin / NEFA / NO2/NO3 / Triacylglycerols / VLDL + LDL cholesterol / Total cholesterol: serum, mean ± SD
# Description: Diets were pair-fed to control for 2 weeks. After that time, fasting blood samples were collected by heart puncture for measurement of plasma lipids, glucose, NEFA, insulin and nitrites/nitrates (end products of nitric oxide metabolism). Total cholesterol in whole serum and in HDL fraction as well as total triglycerides and glucose were measured by enzymatic timed-endpoint methods, using the Beckman Coulter reagents and SYNCHRON™ LX System. VLDL+LDL cholesterol concentrations were calculated as a difference between total and HDL cholesterol. NEFA were determined enzymatically by NEFA C kit (Wako Chemicals USA Inc., Richmond, Va.). Serum insulin was measured using Rat Insulin RIA kit from Linco Research Inc. St. Charles, Mo. Serum nitrates/nitrites concentrations were determined using Nitrate/Nitrite Colorimetric Assay kit from Cayman Chemical Co., Ann Arbor, Mich.
# alpha-glucosidase Type 1 from bakers yeast, sequence (P53341 whole entry): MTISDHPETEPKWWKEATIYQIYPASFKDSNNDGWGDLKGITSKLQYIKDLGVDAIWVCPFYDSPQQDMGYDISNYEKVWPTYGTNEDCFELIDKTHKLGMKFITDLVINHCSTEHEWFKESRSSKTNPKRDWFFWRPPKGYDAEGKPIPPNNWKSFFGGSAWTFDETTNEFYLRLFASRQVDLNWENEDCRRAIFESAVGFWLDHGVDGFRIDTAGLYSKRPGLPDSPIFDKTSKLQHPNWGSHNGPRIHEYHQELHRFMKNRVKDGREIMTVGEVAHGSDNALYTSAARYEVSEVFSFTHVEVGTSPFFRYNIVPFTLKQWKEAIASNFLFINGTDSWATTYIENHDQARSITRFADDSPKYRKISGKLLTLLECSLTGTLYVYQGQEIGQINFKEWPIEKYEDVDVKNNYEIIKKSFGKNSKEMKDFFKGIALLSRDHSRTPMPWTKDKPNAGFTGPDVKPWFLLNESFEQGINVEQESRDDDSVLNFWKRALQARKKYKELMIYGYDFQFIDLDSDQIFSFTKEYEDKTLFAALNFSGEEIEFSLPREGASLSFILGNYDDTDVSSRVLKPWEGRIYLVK
smiles,measurement,setting,value
O=c1cc(-c2ccc(O)cc2)oc2cc(O)cc(O)c12 [apigenin],"inhibition of alpha-glucosidase, previous studies",alpha-glucosidase,inhibition
O=c1cc(-c2ccc(O)c(O)c2)oc2cc(O)cc(O)c12 [luteolin],"inhibition of alpha-glucosidase, previous studies",alpha-glucosidase,inhibition
COc1ccc(-c2oc3c(OC)c(OC)c(OC)c(OC)c3c(=O)c2OC)cc1OC [Heptamethoxyflavone],IC50,[1],500 µM
same,IC50 alpha-glucosidase,[1],201.7 µg/mL
COc1ccc([C@@H]2CC(=O)c3c(O)cc(O[C@@H]4O[C@H](CO[C@@H]5O[C@@H](C)[C@H](O)[C@@H](O)[C@H]5O)[C@@H](O)[C@H](O)[C@H]4O)cc3O2)cc1O [hesperidin],"inhibition of alpha-glucosidase, previous studies",alpha-glucosidase,lack of alpha-glucosidase inhibition
"COc1ccc(-c2cc(=O)c3c(OC)c(OC)c(OC)c(OC)c3o2)cc1 [Tangeretin, 5,6,7,8,4′-pentamethoxyflavone]","medium apo B reduced, compared to insulin alone",HepG2 cells,69%
same,production of apolipoprotein B (apo B),[2],substantially reduced
same,serum content of triacylglycerols and cholesterol,[3],significantly reduced
same,growth rate and food consumption between the groups,"[4]; 0.25-1.0% tangeretin, pair-fed, 2 weeks",no significant difference
same,% change HDL cholesterol,[4]; +0.25% Tan vs fructose group,0%
same,% change Insulin,[4]; +0.25% Tan vs fructose group,−13%
same,% change NEFA,[4]; +0.25% Tan vs fructose group,−23%
same,% change Total cholesterol,[4]; +0.25% Tan vs fructose group,−5%
same,% change Triacylglycerols,[4]; +0.25% Tan vs fructose group,−24%
same,% change HDL cholesterol,[4]; +0.5% Tan vs fructose group,−17%
same,% change Insulin,[4]; +0.5% Tan vs fructose group,−13%
same,% change NEFA,[4]; +0.5% Tan vs fructose group,−22%
same,% change Total cholesterol,[4]; +0.5% Tan vs fructose group,−22%
same,% change Triacylglycerols,[4]; +0.5% Tan vs fructose group,−27%
same,% change HDL cholesterol,[4]; +1.0% Tan vs fructose group,−27%
same,% change Insulin,[4]; +1.0% Tan vs fructose group,−20%
same,% change NEFA,[4]; +1.0% Tan vs fructose group,−18%
same,% change NO2/NO3,[4]; +1.0% Tan vs fructose group,+99%
same,% change Total cholesterol,[4]; +1.0% Tan vs fructose group,−20%
same,% change Triacylglycerols,[4]; +1.0% Tan vs fructose group,−32%
same,HDL cholesterol,[4]; fructose +0.25% Tan,2.55 ± 0.72 mmol/L
same,Insulin,[4]; fructose +0.25% Tan,735 ± 315 pmol/L
same,NEFA,[4]; fructose +0.25% Tan,1.48 ± 0.36 mEq/L
same,NO2/NO3,[4]; fructose +0.25% Tan,55.2 ± 18.8 µmol/L
same,Triacylglycerols,[4]; fructose +0.25% Tan,1.51 ± 0.56 mmol/L
same,VLDL + LDL cholesterol,[4]; fructose +0.25% Tan,0.62 ± 0.3 mmol/L
same,HDL cholesterol,[4]; fructose +0.5% Tan,1.93 ± 0.48 mmol/L
same,Insulin,[4]; fructose +0.5% Tan,729 ± 239 pmol/L
same,NEFA,[4]; fructose +0.5% Tan,1.50 ± 0.33 mEq/L
same,NO2/NO3,[4]; fructose +0.5% Tan,52.0 ± 18.5 µmol/L
same,Total cholesterol,[4]; fructose +0.5% Tan,2.61 ± 0.43 mmol/L
same,Triacylglycerols,[4]; fructose +0.5% Tan,1.45 ± 0.52 mmol/L
same,VLDL + LDL cholesterol,[4]; fructose +0.5% Tan,0.68 ± 0.28 mmol/L
same,HDL cholesterol,[4]; fructose +1.0% Tan,1.88 ± 0.26 mmol/L
same,Insulin,[4]; fructose +1.0% Tan,675 ± 296 pmol/L
same,NEFA,[4]; fructose +1.0% Tan,1.58 ± 0.32 mEq/L
same,NO2/NO3,[4]; fructose +1.0% Tan,106.3 ± 27.9 µmol/L
same,Total cholesterol,[4]; fructose +1.0% Tan,2.69 ± 0.23 mmol/L
same,Triacylglycerols,[4]; fructose +1.0% Tan,1.35 ± 0.57 mmol/L
same,VLDL + LDL cholesterol,[4]; fructose +1.0% Tan,0.81 ± 0.22 mmol/L
same,Serum nitrate/nitrite concentration,[4]; fructose with 1% tangeretin,doubled
same,Serum glucose,"[4]; supplementation with tangeretin, fructose diet",not altered
